Experimental data published in patent US20170196834A1, “PREPARATION AND APPLICATION OF FLAVONOL AS BRAIN-TARGETING SYNERGIST” (GUANGDONG PHARMACEUTICAL UNIVERSITY, priority 2014, published 2017).
Where two headings read alike, the source gives them in different places.

Legend:
[1] = Rb1 in blood and brain tissues 0.5 h after intragastric administration, UPLC-MS (Example 1); assay type: in vivo; conditions: SD rats, equivalent to ginsenoside Rb1 100 mg/kg, 0.5 h after administration
Protocol: Treatment Group: The LXN1-1 and LXN1-2 were made into suspension, administered to SD rats by intragastric administration. Five rats were given 20 ml/kg according to the dose of 125/150 mg/kg (equivalent to ginsenoside Rb1 100 mg/kg);
Control group: ginsenoside […] extract was made into suspension, administered to SD rats by intragastric administration. Five rats were given ginsenoside Rb1 at the volume of 20 ml/kg according to the dose of 100 mg/kg;
The rats were drew blood 0.5 h after administration and then sacrificed under anaesthesia. Brain tissues were taken to prepare brain homogenates. The content of TCM active ingredient in the blood and brain tissues was detected by UPLC-MS.

[2] = tested on: MCAO forebrain ischemia; assay: MCAO forebrain ischemia rats, improvement rate of cerebral infarction area (Example 1); assay type: in vivo; conditions: gavage, 7 days after administration
Protocol: (§1) In addition, […] of MCAO forebrain ischemia were prepared, and they were administered solvent saline, 100 mg/kg LXN1 or ginsenoside Rb1 by gavage at 20 ml/kg, 10 rats per group; Animals were sacrificed 7 days after administration, to observe the improvement rate of cerebral infarction area.

[3] = tested on: MCAO forebrain ischemia; assay: MCAO forebrain ischemia rats, improvement rate of cerebral infarction area (Example 2); assay type: in vivo; conditions: gavage, 7 days after administration
Protocol: as §1, with “administered with” for “administered”, “LXN11 and” for “LXN1 or”, “Rg1” for “Rb1”

[4] = cited from earlier work
[5] = Vinpocetine, edaravone, oxiracetam in blood and brain tissue 0.5 h after intragastric administration, UPLC-MS (Example 6); assay type: in vivo; conditions: rat, oral, SD rats, intragastric 100 mg/kg
Protocol: Treatment Group: LXN6, LXN7, LXN8 were made into suspensions respectively. Five SD rats were administered the suspensions at the dose of 100 mg/kg and the volume of 20 ml/kg by intragastric administration;
Control group: vinpocetine, edaravone, oxiracetam were made into suspension. Five SD rats were administered the suspension at the dose of 100 mg/kg and the volume of 20 ml/kg by intragastric administration;
The rats were drewd blood 0.5 h after administration, then sacrificed under anaesthesia. Brain tissues were taken to prepare brain homogenates. The content of active ingredient in the blood and brain tissues was detected by UPLC-MS.

[6] = tested on: MCAO forebrain ischemia; assay: MCAO forebrain ischemia rats, infarction area, nerve regeneration, learning and memory (Example 6); assay type: in vivo; conditions: 100 mg vinpocetine/edaravone/oxiracetam per kg, intragastric, 7 days after administration
Protocol: In addition, 70 rats of MCAO forebrain ischemia were prepared, and they were administrated with solvent saline, or administrated with LXN6, LXN7 or LXN8, containing vinpocetine, edaravone or oxiracetam, respectively, at a dosage of 100 mg vinpocetine/edaravone/oxiracetam per kg body weight, or administrated with vinpocetine, edaravone or oxiracetam at a dosage of 100 mg/kg.
Intragastric administration at an amount of 20 ml/kg was conducted, for 10 rats per group; Animals were sacrificed 7 days after administration, to observe the improvement rate of cerebral infarction area and the improvement rate of nerve regeneration, learning and memory ability.

[7] = Stilbene glucoside in blood and brain tissues 0.5 h after intragastric administration, UPLC-MS (Example 3); assay type: in vivo; conditions: SD rats, 100 mg/kg stilbene glucoside, 0.5 h after administration
Protocol: Treatment Group: LXN2-1 and LXN2-2 were made into suspension. 5 SD rats were administered the suspension with the dose of 100 mg/kg stilbene glucoside and the volume of 20 ml/kg by intragastric administration;
Control group: stilbene glucoside extract was made into suspension. 5 SD rats were administered the suspension at the dose of 100 mg/kg stilbene glucoside and the volume of 20 ml/kg by intragastric administration;
The rats were drew blood 0.5 h after administration and then sacrificed under anaesthesia. Brain tissues were taken to prepare brain homogenates. The content of stilbene glucoside in the blood and brain tissues were detected by UPLC-MS.

[8] = tested on: 4-VO local cerebral ischemia; assay: 4-VO local cerebral ischemia rats, nerve regeneration, learning and memory (Example 3); assay type: in vivo; conditions: 4-VO rats, gavage, 7 days after administration
Protocol: In addition, 40 rats of 4-VO local cerebral ischemia were prepared and they were administered with solvent saline, 100 mg/kg […], […] and stilbene glucoside by gavage at the volume of 20 ml/kg, 10 rats per group; Animals were sacrificed 7 days after administration, to observe the improve rate of nerve regeneration, learning and memory.

In the case of `CC(C)=CCC[C@](C)(O[C@@H]1O[C@H](CO[C@@H]2O[C@H](CO)[C@@H](O)[C@H](O)[C@H]2O)[C@@H](O)[C@H](O)[C@H]1O)[C@H]1CC[C@]2(C)[C@@H]1[C@H](O)C[C@@H]1[C@@]3(C)CC[C@H](O[C@@H]4O[C@H](CO)[C@@H](O)[C@H](O)[C@H]4O[C@@H]4O[C@H](CO)[C@@H](O)[C@H](O)[C@H]4O)C(C)(C)[C@@H]3CC[C@]12C` [Rb1, ginsenoside Rb1], the “Rb1 content in brain tissues” value [1] is reported as 4.12 ± 1.13 ng/g, the Rb1 plasma concentration [1] is reported as 3.35 ± 0.68 µg/mL and the “Improvement rate of cerebral infarction area” value [2] is reported as 22.1 ± 9.1%.
In the case of `CC(C)=CCC[C@](C)(O[C@@H]1O[C@H](CO)[C@@H](O)[C@H](O)[C@H]1O)[C@H]1CC[C@]2(C)[C@@H]1[C@H](O)C[C@@H]1[C@@]3(C)CC[C@H](O)C(C)(C)[C@@H]3[C@@H](O[C@@H]3O[C@H](CO)[C@@H](O)[C@H](O)[C@H]3O)C[C@]12C` [Rg1, ginsenoside Rg1], the “Improvement rate of cerebral infarction area” value [3] is reported as 26.1 ± 7.1%.
For `C[C@@H]1O[C@@H](OC[C@H]2O[C@@H](Oc3c(-c4ccc(O)c(O)c4)oc4cc(O)cc(O)c4c3=O)[C@H](O)[C@@H](O)[C@@H]2O)[C@H](O)[C@H](O)[C@H]1O` [Rutin], the “solubility in boiling water” value ([4]; boiling water) is listed as “soluble in boiling water” and the solubility in water ([4]; water) is listed as “not soluble in water”.
For `CCOC(=O)C1=C[C@]2(CC)CCCN3CCc4c(n1c1ccccc41)[C@@H]32` [Vinpocetine, vinpocetine], the concentration at 0.5 h ([5]; blood, read-out: Vinpocetine content in the blood) was 84400 ng/mL, the concentration at 0.5 h ([5]; brain, read-out: Vinpocetine content in the brain tissue) was 124 ng/mL and the “Improvement rate of learning and memory” value [6] was 59.9. The Infarction area [6] was 23.1%, the Nerve regeneration rate [6] was 87% and the Space exploration distance [6] was 56.2 cm.
In the case of stilbene glucoside, the “Content of stilbene glucoside in brain tissues” value [7] is reported as 40.2 ± 16.1 ng/g, the “Plasma concentration of stilbene glucoside” value [7] is reported as 3350 ± 680 ng/mL and the “Improvement rate of learning and memory” value [8] is reported as 31.6 ± 21.0%. For the same compound, the Nerve regeneration rate [8] was 81.2 ± 35.6%.
